Here are results for 22 molecules from US8546608B2, “Proteasome inhibitors and methods of using the same” (Cephalon, Inc., priority 2003, dated 2013).

pEC50, pIC50: −log10 of the molar value. Where only a bound is given, the exact number is not on record here.

Series [1] deals with T1, proteasome in Molt-4 cells (human leukemia) (Homo sapiens, UniProt P20618+P28074).
T1 sequence (P28074 60-263): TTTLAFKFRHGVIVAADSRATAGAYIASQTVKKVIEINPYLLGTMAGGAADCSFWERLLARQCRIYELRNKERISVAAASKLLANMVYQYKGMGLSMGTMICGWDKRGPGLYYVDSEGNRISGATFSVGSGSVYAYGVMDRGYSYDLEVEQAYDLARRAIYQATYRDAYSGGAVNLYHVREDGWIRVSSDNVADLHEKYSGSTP
T1 sequence (P20618 29-241): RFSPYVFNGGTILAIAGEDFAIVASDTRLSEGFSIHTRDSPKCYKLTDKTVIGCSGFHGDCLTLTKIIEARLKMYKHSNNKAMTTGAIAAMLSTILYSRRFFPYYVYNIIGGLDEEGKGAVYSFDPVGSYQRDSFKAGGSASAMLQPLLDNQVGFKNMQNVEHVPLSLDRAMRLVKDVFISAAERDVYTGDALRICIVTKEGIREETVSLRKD
It counts as cell-based. To be noted: assay of Example E, inhibition of MOLT4; read-out: MOLT4 (EC50). In short, it runs like this:
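Intact Molt-4 cells (6×10^6 cells/mL) in HEPES-buffered saline were preincubated with inhibitor 15 min at 37 °C, then given cell-permeable MeOSuc-FLF-AFC at 25 μM final.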

The target of series [2] is T2, 20S Human Erythrocyte Proteasome (HEP) (Homo sapiens, UniProt P20618+P28074).
T2 construct: 20S Human Erythrocyte Proteasome (HEP), purchased from Immatics Biotechnologies Inc; purchased Immatics Biotechnologies Inc., Tübingen, Germany; host or cells: human erythrocytes (natural source)
Description: Chymotrypsin-like activity of 20S Human Erythrocyte Proteasome (HEP), IC50 determination. Type of series: biochemical. The note with it: assay of Example C, inhibition of HEP. In short, it runs like this: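 20S proteasome at 0.2 μg/mL (about 0.6 nM catalytic sites) in 20 mM Tris with 0.04% SDS, preincubated 15 min at 37° C with inhibitor before Suc-LLVY-AMC (100 μM final). AMC fluorescence read in the linear range; triplicates, IC50 from concentration series.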

As to `CCCCc1ccc(C(=O)N[C@@H](CNC(=O)C2CCN(S(C)(=O)=O)CC2)C(=O)N[C@@H](CC(C)C)B(O)O)cc1` [E.5.38, Boronic acid, [(1R)-1-[[(2S)-3-(1-methanesulfonylpiperidine-4-carbonylamino)-2-[(4-butylbenzoylamino)]-1-oxopropyl]amino]-3-methylbutyl]], the melting point (commonly the temperature of the solid-liquid transition) was in the range of 170 to 173 °C.
As for `CCCCCCCCCC(=O)N[C@@H](CNS(=O)(=O)c1ccc(F)cc1)C(=O)N[C@@H](CC(C)C)B(O)O` [E.5.12, Boronic acid, [(1R)-1-[[(2S)-3-[4-fluoro-benzenesulfonamide]-2-[(decanoyl)amino]-1-oxopropyl]amino]-3-methylbutyl]], the pEC50 (as a rule, the negative decadic logarithm of the EC50, by convention in mol/L) in series [1] is more than 6.70. Moreover, the pIC50 – broadly, the negative decadic logarithm of the IC50, by convention in mol/L – in series [2] is more than 8.00.
Turning to `CC(C)C[C@H](NC(=O)[C@@H](NC(=O)c1ccc(-c2cccnc2)cc1)[C@@H](C)O)B(O)O` [E.4, Boronic Acid, [(1R)-1-[[(2S,3R)-3-hydroxy-2-[[4-(3-pyridyl)benzoyl]amino]-1-oxobutyl]amino]-3-methylbutyl]], the pEC50 in series [1] is more than 6.70. Besides, in series [2], the pIC50 was more than 8.00.
As for `CC(C)C[C@H](NC(=O)[C@H](CCCNC(=N)N[N+](=O)[O-])NC(=O)Cc1cccc(Cl)c1)B1O[C@@H]2C[C@@H]3C[C@@H](C3(C)C)[C@]2(C)O1` [D.3.128, 2-(3-Chlorophenyl)acetamide,N-[(1S)-1-[[[(1R)-1-[(3aS,4S,6S,7aR)-hexahydro-3a,5,5-trimethyl-4,6-methano-1,3,2-benzodioxaborol-2-yl]-3-methylbutyl]amino]carbonyl]-4-[[imino(nitroamino)methyl]amino]butyl]], in series [1], the pEC50 is 5.70 to 6.70. Moreover, the pIC50 in series [2] is more than 8.00.
The like results for `CCCCCCCCCCC(=O)N[C@@H](CCCNC(=N)N[N+](=O)[O-])C(=O)N[C@@H](CC(C)C)B1O[C@@H]2C[C@@H]3C[C@@H](C3(C)C)[C@]2(C)O1` [D.3.129, Undecanamide,N-[(1S)-1-[[[(1R)-1-[(3aS,4S,6S,7aR)-hexahydro-3a,5,5-trimethyl-4,6-methano-1,3,2-benzodioxaborol-2-yl]-3-methylbutyl]amino]carbonyl]-4-[[imino(nitroamino)methyl]amino]butyl]] were, in that order, more than 6.70 and more than 8.00.
The like results for `CC(C)C[C@H](NC(=O)[C@H](CCCNC(=N)N[N+](=O)[O-])NC(=O)/C=C/c1ccc(Br)cc1)B1O[C@@H]2C[C@@H]3C[C@@H](C3(C)C)[C@]2(C)O1` [D.3.92, (E)-3-(4-Bromophenyl)acrylamide,N-[(1S)-1-[[[(1R)-1-[(3aS,4S,6S,7aR)-hexahydro-3a,5,5-trimethyl-4,6-methano-1,3,2-benzodioxaborol-2-yl]-3-methylbutyl]amino]carbonyl]-4-[[imino(nitroamino)methyl]amino]butyl]] were, in that order, more than 6.70 and more than 8.00.
On to `COc1ccc(F)cc1C(=O)N[C@@H](CCCNC(=N)N[N+](=O)[O-])C(=O)N[C@@H](CC(C)C)B(O)O` [D.7.28, Boronic acid, [(1R)-1-[[(2S)-5-[[imino(nitroamino)methyl]amino]-2-[(5-fluoro-2-methoxybenzoyl)amino]-1-oxopentyl]amino]-3-methylbutyl]], for which the pEC50 in series [1] was less than 5.00. The same molecule had a pIC50 in series [2] of more than 8.00.
`CC(C)C[C@H](NC(=O)[C@H](CCCNC(=N)N[N+](=O)[O-])NC(=O)COc1ccc2ccccc2c1)B(O)O` [E.1.11, Boronic acid, [(1R)-1-[[(2S)-5-[[imino(nitroamino)methyl]amino]-2-[(2-(naphthalen-2-yloxy)acetyl]amino]-1-oxopentyl]amino]-3-methylbutyl]]: the pEC50 in series [1] was 5.70 to 6.70. Further, the pIC50 in series [2] is more than 8.00.
Taken in the same sequence, the figures for `CCCCCCCCCCCCC(=O)N[C@@H](CCCNC(=N)N[N+](=O)[O-])C(=O)N[C@@H](CC(C)C)B(O)O` [E.2.45, Boronic acid, [(1R)-1-[[(2S)-5-[[imino(nitroamino)methyl]amino]-2-[(tridecanoyl)amino]-1-oxopentyl]amino]-3-methylbutyl]] were more than 6.70 and more than 8.00.
The like results for `CCCCCC(=O)NC[C@H](NC(=O)c1ccc(CCCC)cc1)C(=O)N[C@@H](CC(C)C)B(O)O` [E.5.10, Boronic acid, [(1R)-1-[[(2S)-3-(hexanoylamino)-2-[(4-butylbenzoylamino)]-1-oxopropyl]amino]-3-methylbutyl]] were, in that order, more than 6.70 and more than 8.00.
The like results for `CC(C)C[C@H](NC(=O)[C@H](CCCNC(=N)N[N+](=O)[O-])NC(=O)CCCc1ccccc1)B1O[C@@H]2C[C@@H]3C[C@@H](C3(C)C)[C@]2(C)O1` [D.3.12, 4-Phenylbutanamide,N-[(1S)-1-[[[(1R)-1-[(3aS,4S,6S,7aR)-hexahydro-3a,5,5-trimethyl-4,6-methano-1,3,2-benzodioxaborol-2-yl]-3-methylbutyl]amino]carbonyl]-4-[[imino(nitroamino)methyl]amino]butyl]] were, in that order, more than 6.70 and more than 8.00.
Consider `CCCCc1ccc(C(=O)N[C@H](C(=O)N[C@@H](CC(C)C)B(O)O)[C@@H](C)O)cc1` [E.3, Boronic Acid, [(1R)-1-[[(2S,3R)-3-hydroxy-2-[(4-butylbenzoyl)amino]-1-oxobutyl]amino]-3-methylbutyl]], for which, in series [1], the pEC50 was more than 6.70. The pIC50 in series [2] was more than 8.00.
Taken in the same sequence, the figures for `CCS(=O)(=O)NCCCCCCCC(=O)N[C@@H](CCCNC(=N)N[N+](=O)[O-])C(=O)N[C@@H](CC(C)C)B1O[C@@H]2C[C@@H]3C[C@@H](C3(C)C)[C@]2(C)O1` [D.1.13] were 5.00 to 5.70 and more than 8.00.
Turning to `CC(C)C[C@H](NC(=O)[C@H](CCCNC(=N)N[N+](=O)[O-])NC(=O)CSc1ccc2ccccc2c1)B(O)O` [E.2.58, Boronic acid, [(1R)-1-[[(2S)-5-[[imino(nitroamino)methyl]amino]-2-[[2-(2-naphthylsulfanyl)acetyl]amino]-1-oxopentyl]amino]-3-methylbutyl]], the pEC50 in series [1] is 5.00 to 5.70. In addition, in series [2], the pIC50 was more than 8.00.
In the case of `CCCCc1ccc(C(=O)N[C@@H](CNC(=O)c2cccs2)C(=O)N[C@@H](CC(C)C)B(O)O)cc1` [E.5.7, Boronic acid, [(1R)-1-[[(2S)-3-[(thien-2-ylcarbonyl)amino]-2-[(4-butylbenzoylamino)]-1-oxopropyl]amino]-3-methylbutyl]], in series [1], the negative-log EC50 (pEC50) was more than 6.70. Further, in series [2], the pIC50 was more than 8.00.
`CCCCCCCCCC(=O)N[C@H](C(=O)N[C@@H](CC(C)C)B(O)O)[C@@H](C)O` [E.1.17, Boronic acid, [(1R)-1-[[(2S,3R)-3-hydroxy-2-[(decanoyl)amino]-1-oxobutyl]amino]-3-methylbutyl]]: in series [1], the pEC50 is more than 6.70. Moreover, the pIC50 in series [2] is more than 8.00.
Taken in the same sequence, the figures for `Cc1ccc(OCC(=O)N[C@H](C(=O)N[C@@H](CC(C)C)B(O)O)[C@@H](C)O)cc1` [E.3.2] were more than 6.70 and more than 8.00.
Taken in the same sequence, the figures for `CC(C)C[C@H](NC(=O)[C@H](CCCNC(=N)N[N+](=O)[O-])NC(=O)c1ccc(Br)cc1)B(O)O` [D.7.39, Boronic acid, [(1R)-1-[[(2S)-5-[[imino(nitroamino)methyl]amino]-2-[(4-bromobenzoyl)amino]-1-oxopentyl]amino]-3-methylbutyl]] were 5.00 to 5.70 and more than 8.00.
The like results for `CCCCc1ccc(C(=O)N[C@@H](CNC(=O)c2cnccn2)C(=O)N[C@@H](CC(C)C)B2O[C@@H]3C[C@@H]4C[C@@H](C4(C)C)[C@]3(C)O2)cc1` [D.18, 2-S-(4-Butylbenzoylamino)-3-(2-pyrazinocarbonylamino)-N-[(1S)-1-[[(1R)-1-[(3aS,4S,6S,7aR)-hexahydro-3a,5,5-trimethyl-4,6-methano-1,3,2-benzodioxaborol-2-yl]-3-methylbutyl]amino]carbonyl]] were, in that order, more than 6.70 and more than 8.00.
As to `CC(C)C[C@H](NC(=O)[C@H](CCCNC(=N)N[N+](=O)[O-])NC(=O)c1cccs1)B(O)O` [E.2.10, Boronic acid, [(1R)-1-[[(2S)-5-[[imino(nitroamino)methyl]amino]-2-[(2-thiophenecarbonyl)amino]-1-oxopentyl]amino]-3-methylbutyl]], in series [1], the pEC50 is less than 5.00. The molecule also had a pIC50 in series [2] of more than 8.00.
Taken in the same sequence, the figures for `CC(C)CCCC(=O)N[C@@H](CCCNC(=N)N[N+](=O)[O-])C(=O)N[C@@H](CC(C)C)B(O)O` [E.2.26, Boronic acid, [(1R)-1-[[(2S)-5-[[imino(nitroamino)methyl]amino]-2-[(5-methylhexanoyl)amino]-1-oxopentyl]amino]-3-methylbutyl]] were less than 5.00 and more than 8.00.
Taken in the same sequence, the figures for `Cc1ccc(OCC(=O)N[C@H](C(=O)N[C@@H](CC(C)C)B2O[C@@H]3C[C@@H]4C[C@@H](C4(C)C)[C@]3(C)O2)[C@@H](C)O)cc1` [D.3.177, (4-Methylphenoxy)acetamide,N-[(1S,2R)-1-[[[(1R)-1-[(3aS,4S,6S,7aR)-hexahydro-3a,5,5-trimethyl-4,6-methano-1,3,2-benzodioxaborol-2-yl]-3-methylbutyl]amino]carbonyl]-2-hydroxypropyl]] were more than 6.70 and more than 8.00.
